Data as given in patent US9550796B2, “Pyrrolopyrrolone derivatives and their use as BET inhibitors” (NOVARTIS AG, priority 2013, dated 2017).

Key:
BRD2 = BRD2 (Homo sapiens (Human), UniProt P25440); test: TR-FRET in-vitro binding assay for BRD2; details: 45 nM His-Brd2(60-472), acetyl-histone H4 (AcK 5, 8, 12, 16) peptide
Outline: (§1)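 Incubation at 30° C lasted 35 min, followed by TR-FRET measurement; each compound was tested as 8 single-point concentrations.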

K-562 = test: Cell growth inhibition assay (CellTiter-Glo), K-562; assay type: cell-based, human; details: K-562 cells, 4 days; for GI50: Homo sapiens, K562, 96 h, half-maximal growth inhibition; for K-562 TGI: total growth inhibition
Outline: (§2)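 ATP content was quantified with CellTiter-Glo after 4-day compound treatment (top 10 μM, 3-fold steps) at 37 °C. Readings were background- and day-0-corrected, scaled so vehicle equals 100% and medium equals −100%. Four-parameter fits gave half-maximal (IC50) and total growth inhibition concentrations.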

MV-4-11 = test: Cell growth inhibition assay (CellTiter-Glo), MV-4-11; assay type: cell-based, human; details: MV-4-11 cells, 4 days; for GI50: Homo sapiens, MV4-11, 96 h, half-maximal growth inhibition; for MV-4-11 TGI: total growth inhibition
Outline: as §2

THP-1 = test: Cell growth inhibition assay (CellTiter-Glo), THP-1; assay type: cell-based, human; details: THP-1 cells, 4 days; for GI50: Homo sapiens, 96 h, half-maximal growth inhibition; for THP-1 TGI: total growth inhibition
Outline: as §2

BRD4 = BRD4 (Homo sapiens (Human), UniProt O60885); test: TR-FRET in-vitro binding assay for BRD4; details: 45 nM His-Brd4(44-477), acetyl-histone H4 (AcK 5, 8, 12, 16) peptide
Outline: as §1

CREBBP = CREBBP (Homo sapiens (Human), UniProt Q92793); test: AlphaScreen in-vitro binding assay for CREBBP; details: 324 nM His-CREBBP (1081-1197), acetyl-histone H4 (AcK 5, 8, 12) peptide
Sequence of CREBBP (Q92793 1081-1197): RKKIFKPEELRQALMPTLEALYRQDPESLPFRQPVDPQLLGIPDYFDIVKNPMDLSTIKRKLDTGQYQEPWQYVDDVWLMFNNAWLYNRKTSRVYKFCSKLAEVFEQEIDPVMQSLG
Outline: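 IC50 values were derived by non-linear regression of percent inhibition across 8 compound concentrations. Protein was His-tagged CREBBP bromodomain (1081-1197), peptide acetyl-histone H4 (AcK 5, 8, 12), in HEPES pH 7.5 buffer. Read-out was AlphaScreen with Ni-chelate acceptor and streptavidin donor beads, 35 min at 30° C then 60 min at RT.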

BRD3 = BRD3 (Homo sapiens (Human), UniProt Q15059); test: TR-FRET in-vitro binding assay for BRD3; details: 45 nM His-Brd3(20-477), acetyl-histone H4 (AcK 5, 8, 12, 16) peptide
Sequence of BRD3 (Q15059 20-477): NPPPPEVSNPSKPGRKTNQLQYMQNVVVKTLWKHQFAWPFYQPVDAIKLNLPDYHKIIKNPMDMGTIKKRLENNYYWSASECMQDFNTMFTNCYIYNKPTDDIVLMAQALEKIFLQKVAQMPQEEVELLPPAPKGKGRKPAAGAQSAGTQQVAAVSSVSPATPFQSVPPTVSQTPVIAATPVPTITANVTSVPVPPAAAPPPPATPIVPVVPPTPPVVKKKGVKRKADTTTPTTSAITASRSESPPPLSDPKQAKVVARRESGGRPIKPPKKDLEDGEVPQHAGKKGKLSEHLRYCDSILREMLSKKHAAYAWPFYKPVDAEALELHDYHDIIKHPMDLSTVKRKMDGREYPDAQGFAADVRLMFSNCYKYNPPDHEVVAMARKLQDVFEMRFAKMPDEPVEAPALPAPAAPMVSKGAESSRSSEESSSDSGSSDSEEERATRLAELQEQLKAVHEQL
Outline: as §1

Sequence of BRD2 (P25440 60-472): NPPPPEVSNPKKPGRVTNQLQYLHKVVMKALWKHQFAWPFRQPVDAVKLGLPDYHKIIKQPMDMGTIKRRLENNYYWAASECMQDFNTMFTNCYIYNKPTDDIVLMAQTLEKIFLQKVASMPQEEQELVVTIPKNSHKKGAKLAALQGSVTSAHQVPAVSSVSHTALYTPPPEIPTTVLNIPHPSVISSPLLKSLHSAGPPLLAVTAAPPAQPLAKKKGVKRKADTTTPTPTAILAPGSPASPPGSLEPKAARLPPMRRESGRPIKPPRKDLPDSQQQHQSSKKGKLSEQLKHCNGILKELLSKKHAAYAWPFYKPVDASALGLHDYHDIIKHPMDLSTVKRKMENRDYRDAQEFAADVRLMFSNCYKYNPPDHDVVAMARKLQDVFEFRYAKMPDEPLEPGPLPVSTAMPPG

IC50 (BRD2) [µM]	GI50 (K-562) [µM]	GI50 (MV-4-11) [µM]	GI50 (THP-1) [µM]	IC50 (BRD4) [µM]	IC50 (CREBBP) [µM]	IC50 (BRD3) [µM]	SMILES	K-562 TGI (K-562) [µM]	MV-4-11 TGI (MV-4-11) [µM]	THP-1 TGI (THP-1) [µM]
0.1	0.68	0.0944	0.426	0.12	0.18	0.085	Cc1cc(N2C(=O)c3cc(-c4cccc(=O)n4C)n(C4CC4)c3C2c2ccc(Cl)cc2)cn(C)c1=O (stereo not drawn) [Example 63, 6-(4-chlorophenyl)-1-cyclopropyl-5-(1,5-dimethyl-6-oxo-1,6-dihydropyridin-3-yl)-2-(1-methyl-6-oxo-1,6-dihydropyridin-2-yl)-5,6-dihydropyrrolo[3,4-b]pyrrol-4(1H)-one]	>10	0.16	0.788
0.05	0.353	0.118	0.109	0.085	1.5	0.082	Cn1cc(N2C(=O)c3cc(-c4cccn(C)c4=O)n(C4CC4)c3C2c2ccc(Cl)cc2)cc(Cl)c1=O (stereo not drawn) [Example 64, 5-(5-chloro-1-methyl-6-oxo-1,6-dihydropyridin-3-yl)-6-(4-chlorophenyl)-1-cyclopropyl-2-(1-methyl-2-oxo-1,2-dihydropyridin-3-yl)-5,6-dihydropyrrolo[3,4-b]pyrrol-4(1H)-one]	>10	0.196	0.2155
0.042	0.405	0.0667	0.143	0.088	0.3	0.085	Cc1cc(N2C(=O)c3cc(-c4ccc(=O)n(C)c4)n(C4CC4)c3C2c2ccc(Cl)cc2)cn(C)c1=O (stereo not drawn) [Example 67, 6-(4-chlorophenyl)-1-cyclopropyl-5-(1,5-dimethyl-6-oxo-1,6-dihydropyridin-3-yl)-2-(1-methyl-6-oxo-1,6-dihydropyridin-3-yl)-5,6-dihydropyrrolo[3,4-b]pyrrol-4(1H)-one]	>10	0.118	0.353
0.0672	0.148	0.0287	0.0468	0.0632	0.62	0.0522	Cc1cc(N2C(=O)c3cc(C4CC4)n(C)c3C2c2ccc(Cl)cc2)cn(C)c1=O (stereo not drawn) [Example 68, 6-(4-chlorophenyl)-2-cyclopropyl-5-(1,5-dimethyl-6-oxo-1,6-dihydropyridin-3-yl)-1-methyl-5,6-dihydropyrrolo[3,4-b]pyrrol-4(1H)-one]	>10	0.0517	0.096
0.159	0.236	0.0378	0.065	0.121	1.2	0.087	Cc1cc(N2C(=O)c3cc(C)n(C)c3C2c2ccc(Cl)cc2)cn(C)c1=O (stereo not drawn) [Example 69, 6-(4-chlorophenyl)-5-(1,5-dimethyl-6-oxo-1,6-dihydropyridin-3-yl)-1,2-dimethyl-5,6-dihydropyrrolo[3,4-b]pyrrol-4(1H)-one]	>10	0.0843	0.144
0.171	0.294	0.0764	0.159	0.0897	1.43	0.0907	Cc1cc(N2C(=O)c3ccn(C)c3C2c2ccc(Cl)cc2)cn(C)c1=O (stereo not drawn) [Example 72, 6-(4-chlorophenyl)-5-(1,5-dimethyl-6-oxo-1,6-dihydropyridin-3-yl)-1-methyl-5,6-dihydropyrrolo[3,4-b]pyrrol-4(1H)-one]	>10	0.125	0.301
0.66	1.79	0.295	0.396	0.434	26.8	0.223	Cc1cc(N2C(=O)c3ccn(C)c3C2c2ccccc2)cn(C)c1=O (stereo not drawn) [Example 79, 5-(1,5-dimethyl-6-oxo-1,6-dihydropyridin-3-yl)-1-methyl-6-phenyl-5,6-dihydropyrrolo[3,4-b]pyrrol-4(1H)-one]	>10	0.496	0.904
0.292	0.455	0.148	0.146	0.153	1.5	0.147	Cc1cc(N2C(=O)c3ccn(C)c3C2c2ccc(Cl)c(F)c2)cn(C)c1=O (stereo not drawn) [Example 80, 6-(4-chloro-3-fluorophenyl)-5-(1,5-dimethyl-6-oxo-1,6-dihydropyridin-3-yl)-1-methyl-5,6-dihydropyrrolo[3,4-b]pyrrol-4(1H)-one]	>10	0.267	0.3695
0.126	0.721	0.0798	0.149	0.131	4.5	0.0813	Cc1ccc(C2c3c(ccn3C)C(=O)N2c2cc(C)c(=O)n(C)c2)cc1 (stereo not drawn) [Example 81, 5-(1,5-dimethyl-6-oxo-1,6-dihydropyridin-3-yl)-1-methyl-6-(p-tolyl)-5,6-dihydropyrrolo[3,4-b]pyrrol-4(1H)-one]	>10	0.121	0.3
0.23	0.618	0.104	0.206	0.195	4.7	0.14	Cc1cc(N2C(=O)c3ccn(C)c3C2c2ccc(F)cc2)cn(C)c1=O (stereo not drawn) [Example 82, 5-(1,5-dimethyl-6-oxo-1,6-dihydropyridin-3-yl)-6-(4-fluorophenyl)-1-methyl-5,6-dihydropyrrolo[3,4-b]pyrrol-4(1H)-one]	>10	0.189	0.397
0.273	1.13	0.326	0.634	0.323	7.15	0.2	Cc1cc(N2C(=O)c3ccn(C)c3C2c2ccc(C#N)cc2)cn(C)c1=O (stereo not drawn) [Example 83, 4-(5-(1,5-dimethyl-6-oxo-1,6-dihydropyridin-3-yl)-1-methyl-4-oxo-1,4,5,6-tetrahydropyrrolo[3,4-b]pyrrol-6-yl)benzonitrile]	>10	0.636	1.27
0.196	0.548	0.158	0.167	0.23	4.7	0.161	COc1ccc(C2c3c(ccn3C)C(=O)N2c2cc(C)c(=O)n(C)c2)cc1 (stereo not drawn) [Example 84, 5-(1,5-dimethyl-6-oxo-1,6-dihydropyridin-3-yl)-6-(4-methoxyphenyl)-1-methyl-5,6-dihydropyrrolo[3,4-b]pyrrol-4(1H)-one]	>10	0.3385	0.4195
0.433	1.1	0.338	0.392	0.437	18.4	0.277	Cn1ccc2c1C(c1ccccc1)N(c1cc(Cl)c(=O)n(C)c1)C2=O (stereo not drawn) [Example 86, 5-(5-chloro-1-methyl-6-oxo-1,6-dihydropyridin-3-yl)-1-methyl-6-phenyl-5,6-dihydropyrrolo[3,4-b]pyrrol-4(1H)-one]	>10	0.642	0.7955
0.108	0.266	0.0753	0.0839	0.12	4.1	0.0763	Cc1ccc(C2c3c(ccn3C)C(=O)N2c2cc(Cl)c(=O)n(C)c2)cc1 (stereo not drawn) [Example 87, 5-(5-chloro-1-methyl-6-oxo-1,6-dihydropyridin-3-yl)-1-methyl-6-(p-tolyl)-5,6-dihydropyrrolo[3,4-b]pyrrol-4(1H)-one]	>10	0.151	0.255
0.287	0.715	0.21	0.321	0.33	7.6	0.19	Cn1ccc2c1C(c1ccc(F)cc1)N(c1cc(Cl)c(=O)n(C)c1)C2=O (stereo not drawn) [Example 88, 5-(5-chloro-1-methyl-6-oxo-1,6-dihydropyridin-3-yl)-6-(4-fluorophenyl)-1-methyl-5,6-dihydropyrrolo[3,4-b]pyrrol-4(1H)-one]	>10	0.359	0.683
